# “And” between values parts separate entries of the source, which are not always exact repeats. Equal entries are not always repeated.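 Tested at 5 concentrations; 48 h exposure; 96-well plates; endpoints linearly interpolated, else capped at highest concentration. GI50 marks 50% less growth. The concentration for full growth arrest is given as TGI.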
# Experiments:
# Assay in all cases: inhibition of tumour cell growth, NCI panel, 48 h
# LOX IMVI melanoma = system: LOX IMVI melanoma
# SK-MEL-28 melanoma = system: SK-MEL-28 melanoma
# CAKI-1 renal = system: CAKI-1 renal
# COLO 205 colon = system: COLO 205 colon
# A549 NSCLC = system: A549 NSCLC
# NCI-H226 lung = system: NCI-H226 lung
# M14 melanoma = system: M14 melanoma
# HOP-62 NSCLC = system: HOP-62 NSCLC
# SR leukemia = system: SR leukemia
# BT-549 breast = system: BT-549 breast
Structure (SMILES),GI50 (LOX IMVI melanoma) [µM],TGI (LOX IMVI melanoma) [µM],GI50 (SK-MEL-28 melanoma) [µM],TGI (SK-MEL-28 melanoma) [µM],GI50 (CAKI-1 renal) [µM],TGI (CAKI-1 renal) [µM],GI50 (COLO 205 colon),TGI (COLO 205 colon) [µM],GI50 (A549 NSCLC),TGI (A549 NSCLC) [µM],GI50 (NCI-H226 lung) [µM],TGI (NCI-H226 lung) [µM],GI50 (M14 melanoma),TGI (M14 melanoma),GI50 (HOP-62 NSCLC),TGI (HOP-62 NSCLC) [µM],TGI (SR leukemia) [µM],GI50 (SR leukemia) [µM],GI50 (BT-549 breast) [µM],TGI (BT-549 breast) [µM]
O=C1N=C(Nc2nc(-c3csc(NC4=NC(=O)/C(=C\c5ccc(Cl)cc5)S4)n3)cs2)S/C1=C/c1ccc(Cl)cc1,8.34,> 50,42.8,> 50,20,> 50,29.9 µM,> 50,10.5 µM,> 50,3.79,22.3,3.03 µM,11.5 µM,3.29 µM,18,,,,
NC(=O)c1cc([N+](=O)[O-])cc([N+](=O)[O-])c1,,> 100,,> 100,,> 100,,> 100,,> 100,,> 100,,> 100 µM,,> 100,> 100,,,
N#Cc1c(N)c(C#N)c2c(c1-c1ccc(Cl)cc1)COc1ccc(F)cc1-2,43.9,> 50,> 50,> 50,21,> 50,> 50 µM,> 50,42.6 µM,> 50,,,16.7 µM,> 50 µM,,,> 50,> 50,,
Cc1[nH]n(-c2cccc(Cl)c2)c(=O)c1/C=C1\C=c2ccccc2=CC1=O,> 100,> 100,,,> 100,> 100,> 100 µM,> 100,> 100 µM,> 100,,,> 100 µM,> 100 µM,31.4 µM,> 100,,,27.3,> 100
O=C(/C=C/c1ccc(O)cc1)c1cc(Cl)ccc1O,,56.2,,> 100,,> 100,,> 100,,> 100,,> 100,,> 100 µM,,> 100,54.6,,,
ClCCCCOC1CCCCO1 (stereo not drawn),,,,> 100,,> 100,,> 100,,> 100,,> 100,,> 100 µM,,> 100,,,,
CNCCN(C)Cc1cn[nH]c1-c1ccc(OC2CC(OCCC3CCOCC3)C2)cc1 (stereo not drawn),60.1,> 100,> 67.9,> 100,,,21.2 µM,85.7,> 100 µM,> 100,> 100,> 100,> 66.3 µM,> 100 µM,99.1 µM,> 100,> 100,25.9,54.2,> 100
COc1cc(/C=C/c2cc(O)c(C/C=C(\C)CC/C=C(\C)CO)c(O)c2)cc2c1O[C@]1(C)CC[C@@H](O)C(C)(C)[C@H]1C2,,,> 58.3,> 100,9.36,> 42.9,3.21 µM and 15.6 µM,> 100,3.96 µM and 9.59 µM,> 62.5,,> 100,0.486 µM and 3.68 µM,3.72 µM and 19 µM,7.06 µM and 12.9 µM,> 89,,,4.14,> 54.7
O=C1c2ccccc2C(=O)c2c1ccc1c2N=C(c2ccc(Br)cc2)CC(c2cccc3ccccc23)N1 (stereo not drawn),,> 100,,> 100,,> 100,,> 100,,> 100,,> 100,,> 100 µM,,> 100,> 100,,,
CCCCC(C(=O)CCC(=O)Nc1ccc(Cl)cc1)C(=O)C(C)C (stereo not drawn),,> 100,,> 100,,> 100,,> 100,,> 100,,> 100,,> 100 µM,,> 100,> 100,,,
Cc1ccc(S(=O)(=O)CC2(Br)CCc3ccccc3C2=O)cc1 (stereo not drawn),,> 100,,38.5,,53.4,,43.6,,> 100,,> 100,,> 100 µM,,> 100,,,,41.1
Cc1cc(C#Cc2ccccc2)ccc1-n1c(/C=C/c2cc(O)ccc2O)nc2ccccc2c1=O,1.37,2.65,1.53,2.87,2.15,7.24,1.48 µM,2.8,1.28 µM,2.68,1.52,3.93,1.54 µM,2.91 µM,1.71 µM,3.79,2.87,1.1,,
CN1CCc2cc3c4cc2C1Cc1ccc(cc1)Oc1cc(ccc1O)CC1c2c(cc(O)c(c2O4)O3)CCN1C (stereo not drawn),,3.23,,3.33,,34.8,,21.9,,6.11,,4.97,,3.26 µM,,11.2,> 100,,,
CC1CC(c2ccc(Cl)c(Cl)c2)=Nc2ccccc2S1 (stereo not drawn),,> 100,,> 100,,> 100,,> 100,,> 100,,> 100,,> 100 µM,,> 100,> 100,,,
NCC1(N2CCOCC2)C2CCCC21CNc1ccccc1 (stereo not drawn),,> 100,,> 100,,> 100,,> 100,,> 100,,,,> 100 µM,,> 100,> 100,,,
O=C1CC[C@@H](NC(=O)Cc2ccccc2)C(=O)N1,,> 100,,> 100,,> 100,,> 100,,> 100,,> 100,,> 100 µM,,> 100,> 100,,,
O=C(O)c1cn(C2CC2)c2cc(N3CCN(Cc4ccc5ccccc5c4O)CC3)c(F)cc2c1=O,3.13,> 100,3.71,> 100,,,3.27 µM,> 100,3.29 µM,> 100,3.14,> 100,3.18 µM,> 100 µM,2.45 µM,9.36,,,,
CC1COCCN1CC#CCOC(=O)c1cc2ccccc2oc1=O (stereo not drawn),> 100,> 100,> 100,> 100,> 100,> 100,> 100 µM,> 100,> 100 µM,> 100,> 100,> 100,,,> 100 µM,> 100,,,> 100,> 100
Cc1ccc(NC(=O)C(=O)CC(=O)c2ccccc2)cc1C,,> 100,,> 100,,> 100,,> 100,,> 100,,> 100,,> 100 µM,,> 100,,,,
c1ccc2c(c1)N=C(c1ccc3ccccc3c1)CC(c1cccc3ccccc13)S2 (stereo not drawn),,> 100,,> 100,,> 100,,> 100,,> 100,,> 100,,> 100 µM,,> 100,,,,
